Target: T1, mouse Nurr1 receptor (Mus musculus, UniProt Q06219)
T1 construct: endogenously expressing the mouse Nurr1 receptor; host or cells: Neuro-2A (N2A) mouse neuroblastoma cells stably transfected with 8NBRE-luciferase
Assay: in vitro activity on N2A cells (8NBRE-luciferase reporter)
Assay type: cell-based
Conditions: N2A-8NBRE cells, 24 hours incubation
Method: The compounds according to the invention have formed the subject of pharmacological assays which make it possible to determine their modulatory effect on NOT. Evaluation of the in vitro Activity on N2A Cells
The activity of the compounds according to the invention was evaluated on a cell line (N2A) endogenously expressing the mouse Nurr1 receptor and stably transfected with the NOT binding response element (NBRE) coupled to the luciferase reporter gene. The assays were carried out according to the procedure described below.
The Neuro-2A cell line comes from a standard commercial source (ATCC). The Neuro-2A clone was obtained, from a spontaneous tumour originating from an A albino mouse strain, by R. J Klebe et al. This Neuro-2A line is subsequently stably transfected with 8NBRE-luciferase. The N2A-8NBRE cells are cultured until confluence in 75 cm^2 culture flasks containing DMEM supplemented with 10% of foetal calf serum, 4.5 g/l of glucose and 0.4 mg/ml of geneticin. After a week of culture, the cells are recovered with 0.25% trypsin for 30 seconds and then resuspended in DMEM without phenol red, containing 4.5 g/l of glucose and 10% of Hyclone delipidized serum, and deposited into transparent-bottom 96-well white plates. […] The plates are subsequently measured in a luminescence counter for microplates after having been sealed with an adhesive film. […]

T1 sequence (Q06219 whole entry): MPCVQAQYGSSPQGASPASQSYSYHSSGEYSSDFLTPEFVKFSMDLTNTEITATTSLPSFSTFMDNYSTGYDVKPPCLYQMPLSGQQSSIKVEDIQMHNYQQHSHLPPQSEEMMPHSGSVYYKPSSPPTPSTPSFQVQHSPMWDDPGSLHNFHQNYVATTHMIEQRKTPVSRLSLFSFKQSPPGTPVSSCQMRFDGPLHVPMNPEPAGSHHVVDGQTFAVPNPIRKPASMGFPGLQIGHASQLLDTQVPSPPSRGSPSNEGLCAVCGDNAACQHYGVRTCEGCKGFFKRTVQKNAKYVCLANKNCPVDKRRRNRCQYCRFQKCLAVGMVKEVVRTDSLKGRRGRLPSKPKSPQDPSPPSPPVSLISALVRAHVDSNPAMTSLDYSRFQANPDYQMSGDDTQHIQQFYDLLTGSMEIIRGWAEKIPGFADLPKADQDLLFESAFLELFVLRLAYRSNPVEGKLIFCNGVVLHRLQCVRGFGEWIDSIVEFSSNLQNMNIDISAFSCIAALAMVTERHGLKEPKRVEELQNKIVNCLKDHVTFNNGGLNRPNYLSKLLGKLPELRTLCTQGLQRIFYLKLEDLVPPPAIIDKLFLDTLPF

| EC50 | Compound |
| --- | --- |
| 3 nM | C#CC(O)c1cccc(-c2ccn3nc(-c4ccc(F)cc4)cc3c2)c1 (racemic) [Compound 2, 1-{3-[2-(4-Fluorophenyl)pyrazolo[1,5-a]pyridin-5-yl]phenyl}prop-2-yn-1-ol] |

Test system: not given
Assay: not given
Conditions: not given

| Compound | melting point |
| --- | --- |
| C#CC(O)c1c(F)ccc(-c2ccn3nc(-c4ccc(F)cc4)cc3c2)c1F (racemic) [Compound 6, 1-{2,6-Difluoro-3-[2-(4-fluorophenyl)pyrazolo[1,5-a]pyridin-5-yl]-phenyl}prop-2-yn-1-ol] | 151 to 153 °C |
| C#CC(C)(O)c1cccc(-c2ccn3nc(-c4ccc(F)cc4)cc3c2)c1 (single isomer, unassigned; (-)) [Compound 11, (−)-2-{3-[2-(4-Fluorophenyl)pyrazolo[1,5-a]pyridin-5-yl]phenyl}but-3-yn-2-ol] | 122 to 124 °C |
| CC#CC(O)c1cccc(-c2ccn3nc(-c4ccc(F)cc4)cc3c2)c1 (racemic) [Compound 3, 1-{3-[2-(4-Fluorophenyl)pyrazolo[1,5-a]pyridin-5-yl]phenyl}but-2-yn-1-ol] | 164 to 166 °C |
| C#CC(C)(O)c1cccc(-c2ccn3nc(-c4ccc(F)cc4)cc3c2)c1 (racemic) [Compound 4, 2-{3-[2-(4-Fluorophenyl)pyrazolo[1,5-a]pyridin-5-yl]phenyl}but-3-yn-2-ol] | 215 to 217 °C |
| C#CC(C)(O)c1cccc(-c2ccn3nc(-c4ccc(F)cc4)cc3c2)c1 (single isomer, unassigned; (+)) [Compound 12, (+)-2-{3-[2-(4-Fluorophenyl)pyrazolo[1,5-a]pyridin-5-yl]phenyl}but-3-yn-2-ol] | 126 to 128 °C |
| C#CC(O)c1ccccc1-c1ccn2nc(-c3ccc(F)cc3)cc2c1 (racemic) [Compound 5, 1-{2-[2-(4-Fluorophenyl)pyrazolo[1,5-a]pyridin-5-yl]phenyl}prop-2-yn-1-ol] | 104 to 106 °C |
| C#CC(O)c1cccc(-c2ccn3nc(-c4ccccc4F)cc3c2)c1 (racemic) [Compound 7, 1-{3-[2-(2-Fluorophenyl)pyrazolo[1,5-a]pyridin-5-yl]phenyl}prop-2-yn-1-ol] | 157 to 159 °C |

Second part, the molecule after the results:

| melting point | Compound |
| --- | --- |
| 183 to 185 °C | C#CC(O)c1cccc(-c2ccn3nc(-c4ccc(C)cc4)cc3c2)c1 (racemic) [Compound 8, 1-[3-(2-{p-Tolyl}pyrazolo[1,5-a]pyridin-5-yl)phenyl]prop-2-yn-1-ol] |
| 195 to 197 °C | C#CC(O)c1cccc(-c2ccn3nc(-c4ccc(Cl)cc4)cc3c2)c1 (racemic) [Compound 1, 1-{3-[2-(4-Chlorophenyl)pyrazolo[1,5-a]pyridin-5-yl]phenyl}prop-2-yn-1-ol] |
| 147 to 149 °C | C#CC(O)c1cccc(-c2ccn3nc(-c4ccc(F)cc4)cc3c2)c1 (single isomer, unassigned; (-)) [Compound 9, (−)-1-{3-[2-(4-Fluorophenyl)pyrazolo[1,5-a]pyridin-5-yl]phenyl}prop-2-yn-1-ol] |
| 192 to 194 °C | C#CC(O)c1cccc(-c2ccn3nc(-c4ccc(F)cc4)cc3c2)c1 (racemic) [Compound 2, 1-{3-[2-(4-Fluorophenyl)pyrazolo[1,5-a]pyridin-5-yl]phenyl}prop-2-yn-1-ol] |
| 139 to 141 °C | C#CC(O)c1cccc(-c2ccn3nc(-c4ccc(F)cc4)cc3c2)c1 (single isomer, unassigned; (+)) [Compound 10, (+)-1-{3-[2-(4-Fluorophenyl)pyrazolo[1,5-a]pyridin-5-yl]phenyl}prop-2-yn-1-ol] |

Source: patent publication US8546424B2, “Acetylene derivatives of 5-phenyl-pyrazolopyridine, preparation thereof, and therapeutic use thereof” (Sanofi, priority 2009, dated 2013)
